Assays:
HEK293T-Rex cells = assay: mRNA-Seq transcriptional profiling and geneset analysis in HEK293T-Rex cells; type: cell-based, human; details: for activation of the ATF6 geneset relative to Tg: mRNA-seq geneset analysis; for BiP mRNA-Seq fold change (relative to Vh) / GRP94 mRNA-Seq fold change (relative to Vh) / SEL1L mRNA-Seq fold change (relative to Vh): ATF6-selective gene; for BiP mRNA-Seq fold change (relative to Vh) / GRP94 mRNA-Seq fold change (relative to Vh) / SEL1L mRNA-Seq fold change (relative to Vh) / DNAJB1 mRNA-Seq fold change (relative to Vh) / HSPA1A mRNA-Seq fold change (relative to Vh) / HSPA8 mRNA-Seq fold change (relative to Vh) / ASNS mRNA-Seq fold change (relative to Vh) / DDIT3 (CHOP) mRNA-Seq fold change (relative to Vh) / TrIB3 mRNA-Seq fold change (relative to Vh) / ERdj3 mRNA-Seq fold change (relative to Vh) / HYOU1 mRNA-Seq fold change (relative to Vh) / p58IPK mRNA-Seq fold change (relative to Vh) / DNAJC10 mRNA-Seq fold change (relative to Vh) / HSPA13 mRNA-Seq fold change (relative to Vh) / SEC24D mRNA-Seq fold change (relative to Vh): compounds 10 μM, Tg 1 μM; for DNAJB1 mRNA-Seq fold change (relative to Vh) / HSPA1A mRNA-Seq fold change (relative to Vh) / HSPA8 mRNA-Seq fold change (relative to Vh): HSF1 target gene; for ASNS mRNA-Seq fold change (relative to Vh) / DDIT3 (CHOP) mRNA-Seq fold change (relative to Vh) / TrIB3 mRNA-Seq fold change (relative to Vh): PERK target gene; for ERdj3 mRNA-Seq fold change (relative to Vh) / HYOU1 mRNA-Seq fold change (relative to Vh) / p58IPK mRNA-Seq fold change (relative to Vh): XBP1s- or ATF6-target gene; for DNAJC10 mRNA-Seq fold change (relative to Vh) / HSPA13 mRNA-Seq fold change (relative to Vh) / SEC24D mRNA-Seq fold change (relative to Vh): XBP1s-selective gene
Protocol: HEK293T-Rex and HEK293^DAX cells in 12-well plates were treated for 6 h with vehicle, 1 μM Tg, 10 μM TMP (in HEK293^DAX), or 10 μM 132, 147 or 263 in biological triplicate at 37° C. Cells were harvested, and RNA was extracted using the RNeasy Mini Kit (Qiagen). Total RNA was quantified using NanoDrop (ND-1000). Samples were run on the Illuina HiSeq system.
Single end, 100 bp-long reads from RNA-Seq experiments were aligned to the GRCh37.p13 human genome reference assembly using SeqMan NGen 11.2.1 (DNAStar, Inc.). The assembly data were then imported into ArrayStar with QSeq (DNAStar, Inc.) to quantify the gene expression levels. The sequence counts were normalized to reads per kilobase per million (RPKM) after filtering out non-mRNA sequence features. The statistical significance of the difference between the expression levels of a gene under different conditions was assessed using a Student's t-test with the Benjamini-Hochberg multiple testing correction.
ATF6- and XBP1s-selective target genes were identified from transcriptional profiles of HEK293D^X cells following stress-independent activation of TMP-dependent DHFR-ATF6 and/or tetracycline inducible XBP1s, as previously described^4. PERK-selective target genes were identified from^8. Only ATF6-, XBP1s- or PERK-selective genes induced >1.5 fold in Tg-treated samples were used in this analysis. The log transformed fold-increase of these target genes in HEK293T-Rex cells treated with the respective ER proteostasis regulators were then normalized to the log transformed fold increase of these genes induced by Tg treatment. The plots shown in FIG. 5b-e were prepared as box and whisker plots using Kaleidograph. Differential activation of the ATF6, XBP1s, and PERK genesets was assessed by one-way ANOVA and significance of pairwise comparison confirmed by unpaired t-test. An analogous strategy was employed to prepare the heat map using transcriptional data from the MGE analysis.

ATF6 = assay: Immunoblot of the 50 kDa ATF6 fragment; type: cell-based; details: immunoblotting
Protocol: For immunoblotting, cells were lysed in 50 mM Tris buffer, pH 7.5 containing 0.1% TritonX (Fisher Scientific) and supplemented with protease inhibitor cocktail (Roche). For immunoblots of endogenous ATF6, cells were washed in PBS containing protease inhibitor cocktail and 10 μM MG-132 and subsequently lysated in 1× Laemmli buffer, supplemented in the same way, by repeating cycles of boiling and vortexing. Protein lysate concentrations were normalized by Bradford assays (Bio-Rad). Lysates or media were boiled for 10 min in Laemmli buffer+100 mM DTT before loading onto SDS-PAGE gel. Proteins were transferred from gel slabs to nitrocellulose, and the Odyssey Infrared Imaging System (Li-Cor Biosciences) was used to detect proteins of interest.

[1] = system: BiP expression in ALMC-2 cells; assay: BiP qPCR in ALMC-2 cells; type: cell-based, human; details: 10 μM, 6 h
Protocol: (§1) Cells were treated as described at 37° C., washed with Dulbecco's phosphate-buffered saline (Gibco), and then RNA was extracted using the RNeasy Mini Kit (Qiagen). qPCR reactions were performed on cDNA prepared from 500 ng of total cellular RNA using the QuantiTect Reverse Transcription Kit (Qiagen). The FastStart Universal SYBR Green Master Mix (Roche), cDNA, and appropriate human primers^4 or mouse primers (BiP; […] (SEQ ID NO: 5) and […] (SEQ ID NO: 6) purchased from Integrated DNA Technologies were used for amplifications (45 cycles of 1 min at 95° C., 10 s at 95° C., 30 sec at 60° C.) in an ABI 7900HT Fast Real Time PCR machine. Primer integrity was assessed by a thermal melt to confirm homogeneity and the absence of primer dimers. Transcripts were normalized to the housekeeping gene Rplp2 and all measurements were performed in triplicate. Data were analyzed using the RQ Manager and DataAssist 2.0 softwares (ABI).

ALMC-2 cells = assay: ALMC-2 cell viability (CellTiter-Glo); type: cell-based, human; details: 10 μM
Protocol: HepG2 cells were plated at 5,000 cells/well in a translucent, flat-bottomed 96 well plate, and treated for 48 hr with vehicle, 10 μM Tg or 10 μM ER proteostasis regulator. ALMC-2 or KAS-6/1 cells were plated at 33,000 cells/well in 96-well plates then treated with proteostasis regulators for 16 h as described. Cell metabolic activity was measured using the CellTiter-Glo assay (Promega), which reports on intracellular ATP concentration. CellTiter-Glo reagent was added to cell culture media at a 1:1 ratio and incubated for 2 minutes on an orbital shaker to induce cell lysis. The plate was then incubated at room temperature for 10 minutes to stabilize the luminescent signal and read on a Tecan F200 Pro microplate reader.

BiP expression = assay: BiP qPCR 24 h timecourse; type: cell-based
Protocol: as §1

With Cc1ccc(O)c(N/C=C/C(=O)c2ccc(F)cc2)c1 [Compound 132] the “slope of log2 mRNA fold change with compound versus with Tg” value (HEK293T-Rex cells; 10 μM, 6 h, ER proteostasis genes) was 1, the “activation of the ATF6 geneset relative to Tg” value (HEK293T-Rex cells; 10 μM) was 75% and the “BiP mRNA-Seq fold change (relative to Vh)” value (HEK293T-Rex cells; 6 h) was 9.1 fold. For the same compound, the “GRP94 mRNA-Seq fold change (relative to Vh)” value (HEK293T-Rex cells; 6 h) was 3.5 fold, the “SEL1L mRNA-Seq fold change (relative to Vh)” value (HEK293T-Rex cells; 6 h) was 4.9 fold and the “DNAJB1 mRNA-Seq fold change (relative to Vh)” value (HEK293T-Rex cells; 6 h) was 3.0 fold. The “HSPA1A mRNA-Seq fold change (relative to Vh)” value (HEK293T-Rex cells; 6 h) was 9.3 fold, the “HSPA8 mRNA-Seq fold change (relative to Vh)” value (HEK293T-Rex cells; 6 h) was 1.5 fold and the “ASNS mRNA-Seq fold change (relative to Vh)” value (HEK293T-Rex cells; 6 h) was 2.7 fold. For the same compound, the “DDIT3 (CHOP) mRNA-Seq fold change (relative to Vh)” value (HEK293T-Rex cells; 6 h) was 10.6 fold, the “TrIB3 mRNA-Seq fold change (relative to Vh)” value (HEK293T-Rex cells; 6 h) was 5.8 fold and the “ERdj3 mRNA-Seq fold change (relative to Vh)” value (HEK293T-Rex cells; 6 h) was 2.9 fold. For the same compound, the “HYOU1 mRNA-Seq fold change (relative to Vh)” value (HEK293T-Rex cells; 6 h) was 3.6 fold, the “p58IPK mRNA-Seq fold change (relative to Vh)” value (HEK293T-Rex cells; 6 h) was 3.7 fold and the “DNAJC10 mRNA-Seq fold change (relative to Vh)” value (HEK293T-Rex cells; 6 h) was 1.4 fold. The “HSPA13 mRNA-Seq fold change (relative to Vh)” value (HEK293T-Rex cells; 6 h) was 2.6 fold, the “SEC24D mRNA-Seq fold change (relative to Vh)” value (HEK293T-Rex cells; 6 h) was 3.1 fold and the “accumulation of the 50 kDa ATF6 fragment (S1P/S2P proteolysis)” value (ATF6) was “increased accumulation”. For the same compound, the “expression of the ATF6 target gene BiP in ALMC-2 cells” value (shortened to “expression”) [1] was “induced”, the “reduction in cell viability” value (ALMC-2 cells) was 45% and the “time of maximal BiP induction” value (BiP expression) was 6 h.
Cc1ccc(O)c(NC(=O)CCc2ccccc2)c1 [Compound 147] was tested, and the “activation of the ATF6 geneset relative to Tg” value (HEK293T-Rex cells; 10 μM) was 45%, the “BiP mRNA-Seq fold change (relative to Vh)” value (HEK293T-Rex cells; 6 h) was 3.3 fold and the “GRP94 mRNA-Seq fold change (relative to Vh)” value (HEK293T-Rex cells; 6 h) was 1.8 fold. For the same compound, the “SEL1L mRNA-Seq fold change (relative to Vh)” value (HEK293T-Rex cells; 6 h) was 2.2 fold, the “DNAJB1 mRNA-Seq fold change (relative to Vh)” value (HEK293T-Rex cells; 6 h) was 1.6 fold and the “HSPA1A mRNA-Seq fold change (relative to Vh)” value (HEK293T-Rex cells; 6 h) was 3.2 fold. For the same compound, the “HSPA8 mRNA-Seq fold change (relative to Vh)” value (HEK293T-Rex cells; 6 h) was 1.3 fold, the “ASNS mRNA-Seq fold change (relative to Vh)” value (HEK293T-Rex cells; 6 h) was 1.0 fold and the “DDIT3 (CHOP) mRNA-Seq fold change (relative to Vh)” value (HEK293T-Rex cells; 6 h) was 1.7 fold. For the same compound, the “TrIB3 mRNA-Seq fold change (relative to Vh)” value (HEK293T-Rex cells; 6 h) was 1.0 fold, the “ERdj3 mRNA-Seq fold change (relative to Vh)” value (HEK293T-Rex cells; 6 h) was 1.7 fold and the “HYOU1 mRNA-Seq fold change (relative to Vh)” value (HEK293T-Rex cells; 6 h) was 1.8 fold. The “p58IPK mRNA-Seq fold change (relative to Vh)” value (HEK293T-Rex cells; 6 h) was 1.8 fold, the “DNAJC10 mRNA-Seq fold change (relative to Vh)” value (HEK293T-Rex cells; 6 h) was 1.1 fold and the “HSPA13 mRNA-Seq fold change (relative to Vh)” value (HEK293T-Rex cells; 6 h) was 1.2 fold. For the same compound, the “SEC24D mRNA-Seq fold change (relative to Vh)” value (HEK293T-Rex cells; 6 h) was 1.4 fold, the “expression” value [1] was “induced” and the “cell viability (in words)” value (ALMC-2 cells) was “do not significantly affect”. For the same compound, the “time of maximal BiP induction” value (BiP expression) was 6 h.
O=[N+]([O-])c1ccc(N/N=C/c2ccccc2O)cc1 [Compound 263] was tested, and the “activation of the ATF6 geneset relative to Tg” value (HEK293T-Rex cells; 10 μM) was 50%, the “BiP mRNA-Seq fold change (relative to Vh)” value (HEK293T-Rex cells; 6 h) was 5.7 fold and the “GRP94 mRNA-Seq fold change (relative to Vh)” value (HEK293T-Rex cells; 6 h) was 2.5 fold. The “SEL1L mRNA-Seq fold change (relative to Vh)” value (HEK293T-Rex cells; 6 h) was 2.7 fold, the “DNAJB1 mRNA-Seq fold change (relative to Vh)” value (HEK293T-Rex cells; 6 h) was 1.4 fold and the “HSPA1A mRNA-Seq fold change (relative to Vh)” value (HEK293T-Rex cells; 6 h) was 2.5 fold. The “HSPA8 mRNA-Seq fold change (relative to Vh)” value (HEK293T-Rex cells; 6 h) was 1.3 fold, the “ASNS mRNA-Seq fold change (relative to Vh)” value (HEK293T-Rex cells; 6 h) was 1.5 fold and the “DDIT3 (CHOP) mRNA-Seq fold change (relative to Vh)” value (HEK293T-Rex cells; 6 h) was 2.0 fold. The “TrIB3 mRNA-Seq fold change (relative to Vh)” value (HEK293T-Rex cells; 6 h) was 1.3 fold, the “ERdj3 mRNA-Seq fold change (relative to Vh)” value (HEK293T-Rex cells; 6 h) was 2.4 fold and the “HYOU1 mRNA-Seq fold change (relative to Vh)” value (HEK293T-Rex cells; 6 h) was 2.7 fold. The “p58IPK mRNA-Seq fold change (relative to Vh)” value (HEK293T-Rex cells; 6 h) was 2.9 fold, the “DNAJC10 mRNA-Seq fold change (relative to Vh)” value (HEK293T-Rex cells; 6 h) was 1.3 fold and the “HSPA13 mRNA-Seq fold change (relative to Vh)” value (HEK293T-Rex cells; 6 h) was 1.7 fold. For the same compound, the “SEC24D mRNA-Seq fold change (relative to Vh)” value (HEK293T-Rex cells; 6 h) was 2.1 fold, the “accumulation of the 50 kDa ATF6 fragment (S1P/S2P proteolysis)” value (ATF6) was “increased accumulation” and the “expression” value [1] was “does not significantly induce”. For the same compound, the “time of maximal BiP induction” value (BiP expression) was 6 h.

Source: US11135186B2, “Regulators of the endoplasmic reticulum proteostasis network” (The Scripps Research Institute, priority 2015, dated 2021)
